Reference: patent publication US20250145561A1, “4-SUBSTITUTED-PHENYL ACETAMIDES AND ARYLUREAS AS AGONISTS FOR THE ORPHAN RECEPTOR GPR88” (RESEARCH TRIANGLE INSTITUTE, priority 2022, published 2025)

Molecular target: T1, GPR88 (Homo sapiens, UniProt Q9GZN0)
T1 construct: expressed in transfected cells
Assay: Lance Ultra TR-FRET cAMP assay using stable PPLS-HA-GPR88 CHO cells
Format: cell-based
Details: for Emax: CHO; for EC50 / cAMP pEC50: stable PPLS-HA-GPR88 CHO cells; for EC50: value in parentheses beside pEC50; for cAMP pEC50: 300 nM forskolin, mean ± standard error of at least three independent experiments in duplicate
Procedure: The compounds of the present disclosure offer potent agonism to the orphan receptor GPR88. As such, the compounds of the present disclosure provide therapeutic potential for the treatment of striatal associated disorders such as Parkinson's disease, schizophrenia, and alcohol addiction. All compounds were evaluated for the GPR88 agonist activity in the inventors' previously established in vitro GPR88 Lance TR-FRET cAMP assay. See, supra, Jin et al., 2018, Rahman et al., 2020, and Rahman et al., 2021. As will be described, the TR-FRET signal was converted to fmol cAMP by interpolating from the standard cAMP curve. Fmol cAMP was plotted against the log of compound concentration and data were fit to a three-parameter logistic curve to generate maximum response (Emax) and EC50 values.
Lance™ Ultra cAMP assay using stable PPLS-HA-GPR88 CHO cells. All cAMP assays were performed using the inventors' previously published methods. […] ACS Chemical Neuroscience 2016, 7, 1418-1432, which is incorporated by reference herein with regard to such teaching. Stimulation buffer containing 1× Hank's Balanced Salt Solution (HBSS), 5 mM HEPES, 0.1% BSA stabilizer, and 0.5 mM final IBMX was prepared and titrated to pH 7.4 at room temperature. Serial dilutions of the test compounds (5 μL) and 300 nM forskolin (5 μL), both prepared at 4× the desired final concentration in 2% DMSO/stimulation buffer, were added to a 96-well white ½ area microplate (PerkinElmer). A cAMP standard curve was prepared at 4× the desired final concentration in stimulation buffer and 5 μL was added to the assay plate. Stable PPLS-HA-GPR88 CHO cells were lifted with versene and spun at 270 g for 10 minutes. The cell pellet was resuspended in stimulation buffer and 4,000 cells (10 μL) were added to each well except wells containing the cAMP standard curve. After incubating for 30 min at room temperature, Eu-cAMP tracer and uLIGHT-anti-cAMPworking solutions were added per the manufacturer's instructions. After incubation at room temperature for 1 hour, the TR-FRET signal (ex 337 nm) was read on a CLARIOstar multimode plate reader (BMG Biotech, Cary, NC).
Data Analysis. The TR-FRET signal (665 nm) was converted to fmol cAMP by interpolating from the standard cAMP curve. Fmol cAMP was plotted against the log of compound concentration and data were fit to a three-parameter logistic curve to generate EC50 values (Prism, version 6.0, GraphPad Software, Inc., San Diego, CA).

T1 sequence (Q9GZN0 whole entry): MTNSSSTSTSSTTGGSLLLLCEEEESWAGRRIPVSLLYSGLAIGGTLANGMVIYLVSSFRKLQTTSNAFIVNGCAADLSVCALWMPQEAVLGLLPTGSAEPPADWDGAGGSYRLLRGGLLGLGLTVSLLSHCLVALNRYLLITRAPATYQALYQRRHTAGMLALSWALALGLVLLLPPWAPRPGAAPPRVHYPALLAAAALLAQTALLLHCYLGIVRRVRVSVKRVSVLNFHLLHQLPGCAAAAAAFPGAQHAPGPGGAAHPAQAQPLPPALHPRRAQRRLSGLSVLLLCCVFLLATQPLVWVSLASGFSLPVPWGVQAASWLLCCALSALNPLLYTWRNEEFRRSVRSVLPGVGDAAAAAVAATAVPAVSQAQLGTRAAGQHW

Row | Compound | Emax | EC50 | cAMP pEC50
1 | CCCC(C)COc1ccc([C@@H](CO)C(=O)NC2(c3ccccc3)CC2)cc1 (stereo partly drawn) [Compound 20, (2S)-3-Hydroxy-2-{4-[(2-methylpentyl)oxy]phenyl}-N-(1-phenylcyclopropyl)propenamide] | 81 ± 8% |  | 
2 | CCCC(C)COc1ccc([C@@H](CO)C(=O)N[C@H](COC)c2ccccc2)cc1 (stereo partly drawn) [Compound 18, (2S)-3-Hydroxy-N-[(1 S)-2-methoxy-1-phenylethyl]-2-{4-[(2-methylpentyl)oxy]phenyl}propenamide] | 91 ± 4% |  | 
3 | CCCC(C)COc1ccc([C@@H](CO)C(=O)N[C@@H]2C[C@H]2c2ccccc2)cc1 (stereo partly drawn) [Compound 24] | 83 ± 5% |  | 
4 | CC[C@@H](C)COc1ccc([C@@H](CO)C(=O)N[C@H](C)c2ccccc2)cc1 [Compound 8, (2S)-3-Hydroxy-2-{4-[(2R)-2-methylbutoxy]phenyl}-N-[(1 R)-1-phenylethyl]propenamide] | 96 ± 13% | 3090 nM | 
5 | CCCC(C)COc1ccc([C@@H](CO)C(=O)N[C@H](C)c2cccc(C)c2)cc1 (stereo partly drawn) [Compound 10, (2S)-3-Hydroxy-2-{4-[(2-methylpentyl)oxy]phenyl}-N-[(1 R)-1-(3-methylphenyl)ethyl]propenamide] | 100 ± 3% |  | 
6 | CCCC(C)COc1ccc([C@@H](CO)C(=O)Nc2ccccc2)cc1 (stereo partly drawn) [Compound 14, (2S)-3-Hydroxy-2-{4-[(2-methylpentyl)oxy]phenyl}-N-phenylpropanamide] |  |  | Inactive
7 | CCCC(C)COc1ccc([C@@H](CO)C(=O)N[C@H](C)c2cccs2)cc1 (stereo partly drawn) [Compound 23, (2S)-3-Hydroxy-2-{4-[(2-methylpentyl)oxy]phenyl}-N-[(1 R)-1-(thiophen-2-yl)ethyl]propenamide] | 93 ± 5% |  | 
8 | CCCc1ccc(-c2ccc([C@@H](CC)C(=O)N[C@H](C)c3ccccc3)cc2)cc1 [Compound 27, (2R)—N-[(1 R)-1-Phenylethyl]-2-{4′-propyl-[1,1′-biphenyl]-4-yl}butanamide] | 93 ± 9% | 501 nM | 
9 | CCCc1ccc(-c2ccc(CC(=O)N[C@H](C)c3ccccc3)cc2)cc1 [Compound 26, N-[(1 R)-1-Phenylethyl]-2-{4′-propyl-[1,1′-biphenyl]-4-yl}acetamide] | 95 ± 5% | 257 nM | 
10 | CCCC(C)COc1ccc([C@H](CO)C(=O)N[C@@H](C)c2ccccc2)cc1 (stereo partly drawn) [Compound 6, (2R)-3-Hydroxy-2-{4-[(2-methylpentyl)oxy]phenyl}-N-[(1 S)-1-phenylethyl]propenamide] |  |  | Inactive
11 | CCCC(C)COc1ccc([C@@H](CO)C(=O)N[C@H](C)c2ccc(C)cc2)cc1 (stereo partly drawn) [Compound 11, (2S)-3-Hydroxy-2-{4-[(2-methylpentyl)oxy]phenyl}-N-[(1 R)-1-(4-methylphenyl)ethyl]propenamide] | 102 ± 7% |  | 
12 | CCCc1ccc(-c2ccc([C@@H](CO)C(=O)N[C@H](C)c3ccccc3)cc2)cc1 [Compound 25, (2S)-3-Hydroxy-N-[(1 R)-1-phenylethyl]-2-{4′-propyl-[1,1′-biphenyl]-4-yl}propenamide] | 96 ± 3% | 138 nM | 
13 | CC[C@H](C)COc1ccc([C@@H](CO)C(=O)N[C@H](C)c2ccccc2)cc1 [Compound 7, (2S)-3-Hydroxy-2-{4-[(2S)-2-methylbutoxy]phenyl}-N-[(1 R)-1-phenylethyl]propenamide] | 88 ± 7% | 2000 nM | 
14 | CCCC(C)COc1ccc([C@@H](CO)C(=O)NCCc2ccccc2)cc1 (stereo partly drawn) [Compound 16, (2S)-3-Hydroxy-2-{4-[(2-methylpentyl)oxy]phenyl}-N-(2-phenylethyl)propenamide] | 97 ± 5% |  | 
15 | CCCC(C)COc1ccc([C@@H](CO)C(=O)N[C@H](C)c2ccccc2C)cc1 (stereo partly drawn) [Compound 9, (2S)-3-Hydroxy-2-{4-[(2-methylpentyl)oxy]phenyl}-N-[(1 R)-1-(2-methylphenyl)ethyl]propenamide] | 48 ± 8% |  | 

The remaining lines, values ahead:

Row | Emax | EC50 | cAMP pEC50 | Compound
16 | 91 ± 4% | 1860 nM |  | CCCc1ccc(-c2ccc(N(C[C@@H](N)[C@@H](C)CC)C(=O)NC3(c4ccccc4)CC3)cc2)cc1 [Compound 46, 1-[(2S,3S)-2-Amino-3-methylpentyl]-3-(1-phenylcyclopropyl)-1-{4′-propyl-[1,1′-biphenyl]-4-yl}urea]
17 | 92 ± 7% | 204 nM |  | CCCC#Cc1ccc([C@@H](CO)C(=O)N[C@H](C)c2ccccc2)cc1 [Compound 36, (2S)-3-Hydroxy-2-[4-(pent-1-yn-1-yl)phenyl]-N-[(1 R)-1-phenylethyl]propenamide]
18 | 106 ± 3% | 1740 nM |  | CCCc1ccc(-c2ccc(N(C[C@@H]3CCCN3)C(=O)N[C@@H](C)c3ccccc3)cc2)cc1 [Compound 53, 1-[(1 S)-1-Phenylethyl]-3-{4′-propyl-[1,1′-biphenyl]-4-yl}-3-{[(2S)-pyrrolidin-2-yl]methyl}urea]
19 | 102 ± 2% | 479 nM |  | CC(C)C#Cc1ccc([C@@H](CO)C(=O)N[C@H](C)c2ccccc2)cc1 [Compound 37, (2S)-3-Hydroxy-2-[4-(3-methylbut-1-yn-1-yl)phenyl]-N-[(1 R)-1-phenylethyl]propenamide]
20 | 107 ± 3% | 1290 nM |  | CCCc1ccc(-c2ccc(N(C[C@H](C)N)C(=O)N[C@@H](C)c3ccccc3)cc2)cc1 [Compound 52, 3-[(2S)-2-Aminopropyl]-1-[(1 S)-1-phenylethyl]-3-{4′-propyl-[1,1′-biphenyl]-4-yl}urea]
21 | 110 ± 5% | 1550 nM |  | CCCc1ccc(-c2ccc(N(C[C@@H](N)[C@@H](C)CC)C(=O)N[C@@H](COC)c3ccccc3)cc2)cc1 [Compound 48, 3-[(2S,3S)-2-Amino-3-methylpentyl]-1-[(1 R)-2-methoxy-1-phenylethyl]-3-{4′-propyl-[1,1′-biphenyl]-4-yl}urea]
22 |  |  | Inactive | CCCc1ccc(-c2ccc(N(C[C@@H](N)[C@@H](C)CC)C(=O)Nc3ccccc3)cc2)cc1 [Compound 38, 3-[(2S,3S)-2-Amino-3-methylpentyl]-1-phenyl-3-{4′-propyl-[1,1′-biphenyl]-4-yl}urea]
23 | 116 ± 9% | 331 nM |  | CCc1ccc(-c2ccc(N(C[C@@H](N)[C@@H](C)OC)C(=O)N[C@@H](C)c3ccccc3)cc2)cc1 [Compound 56, 3-[(2R,3R)-2-Amino-3-methoxybutyl]-1-[(1 S)-1-phenylethyl]-3-{4′-ethyl-[1,1′-biphenyl]-4-yl}urea]
24 | 102 ± 2% | 676 nM |  | CCOc1ccc(-c2ccc(N(C[C@@H](N)[C@@H](C)OC)C(=O)N[C@@H](C)c3ccccc3)cc2)cc1 [Compound 58, 3-[(2R,3R)-2-Amino-3-methoxybutyl]-1-[(1 S)-1-phenylethyl]-3-{4′-ethoxy-[1,1′-biphenyl]-4-yl}urea]
25 | 108 ± 4% | 1380 nM |  | CCCCCCc1ccc(N(C[C@@H](N)[C@@H](C)CC)C(=O)N[C@@H](C)c2ccccc2)cc1 [Compound 43, 3-[(2S,3S)-2-Amino-3-methylpentyl]-3-(4-hexylphenyl)-1-[(1 S)-1-phenylethyl]urea]
26 |  |  | Inactive | CCCc1ccc(-c2ccc(N(C[C@@H](N)[C@@H](C)CC)C(=O)N[C@H](C)c3ccccc3)cc2)cc1 [Compound 41, 3-[(2S,3S)-2-Amino-3-methylpentyl]-1-[(1 R)-1-phenylethyl]-3-{4′-propyl-[1,1′-biphenyl]-4-yl}urea]
27 | 114 ± 6% | 457 nM |  | CO[C@H](C)[C@H](N)CN(C(=O)N[C@@H](C)c1ccccc1)c1ccc(-c2ccc(C)cc2)cc1 [Compound 55, 3-[(2R,3R)-2-Amino-3-methoxybutyl]-1-[(1 S)-1-phenylethyl]-3-{4′-methyl-[1,1′-biphenyl]-4-yl}urea]
28 | 86% | 245 nM |  | C[C@@H](NC(=O)[C@H](CO)c1ccc(-c2ccc(OC3CC3)cc2)cc1)c1ccccc1 [Compound 34, (2S)-2-{4′-cyclopropoxy-[1,1′-biphenyl]-4-yl}-3-hydroxy-N-[(1 R)-1-phenylethyl]propenamide]
29 | 101 ± 3% | 891 nM |  | COc1ccc(-c2ccc(N(C[C@@H](N)[C@@H](C)OC)C(=O)N[C@@H](C)c3ccccc3)cc2)cc1 [Compound 57, 3-[(2R,3R)-2-Amino-3-methoxybutyl]-1-[(1 S)-1-phenylethyl]-3-{4′-methoxy-[1,1′-biphenyl]-4-yl}urea]
30 | 74 ± 7% | 355 nM |  | C[C@@H](NC(=O)[C@H](CO)c1ccc(-c2ccc(C3CCC3)cc2)cc1)c1ccccc1 [Compound 32, (2S)-2-{4′-Cyclobutyl-[1,1′-biphenyl]-4-yl}-3-hydroxy-N-[(1 R)-1-phenylethyl]propenamide]
